Data as given in publication PMC10174618, “Monoterpenoid aryl hydrocarbon receptor allosteric antagonists protect against ultraviolet skin damage in female mice” (Nature Communications, 2023).

Legend:
Experiment in all cases: biochemical
Set-up in all cases: KINOMEscan scanMAX active site-directed competition binding assay, percent of control, 468 kinases
Conditions in all cases: competition binding, percent of control
ASK2 = target: T1, ASK2 (Homo sapiens, UniProt O95382)
T1 construct: gene MAP3K6
Protocol: (§1) The KINOMEscan^TM screening platform (scanMAX assay) employs a proprietary active site-directed competition binding assay that quantitatively measures the interactions between test compounds (here 100 μM S-carvone) and 468 human protein kinases. The assay was performed at Eurofins DiscoverX Corp. (Fremont, CA, USA). Blocking protein kinase C (PKC) activity was reported to inhibit the transcription of CYP1A1 but to exert no effect on the nuclear translocation of AhR[26], which was also the case here with carvones. Therefore, we tested whether carvones inhibit PKC catalytic activity. […] We also evaluated the interaction between 100 μM S-carvone and 468 human protein kinases, employing KINOMEscan^TM (scanMAX assay), a proprietary active site-directed competition binding assay. The minimal inhibitory threshold used by the screening platform KINOMEscan^TM is 35% of the control kinase activity. Among 468 kinases tested, 467 were above the 35% cutoff. Tyrosine kinase 2 TK2 (JH2 domain pseudokinase) activity was inhibited to 27% of the control activity, but this kinase is not relevant to the regulation of transcription activity (Fig. 5B; Figure S9). Overall, we excluded the possibility that the effects of carvones on AhR signaling are caused indirectly by the inhibition of the human kinome, particularly PKC.

CAMK4 = CAMK4 (Homo sapiens, UniProt Q16566)
Protocol: as §1

CDKL2 = CDKL2 (Homo sapiens, UniProt Q92772)
Protocol: as §1

CLK1 = CLK1 (Homo sapiens, UniProt P49759)
Sequence of CLK1 (P49759 whole entry): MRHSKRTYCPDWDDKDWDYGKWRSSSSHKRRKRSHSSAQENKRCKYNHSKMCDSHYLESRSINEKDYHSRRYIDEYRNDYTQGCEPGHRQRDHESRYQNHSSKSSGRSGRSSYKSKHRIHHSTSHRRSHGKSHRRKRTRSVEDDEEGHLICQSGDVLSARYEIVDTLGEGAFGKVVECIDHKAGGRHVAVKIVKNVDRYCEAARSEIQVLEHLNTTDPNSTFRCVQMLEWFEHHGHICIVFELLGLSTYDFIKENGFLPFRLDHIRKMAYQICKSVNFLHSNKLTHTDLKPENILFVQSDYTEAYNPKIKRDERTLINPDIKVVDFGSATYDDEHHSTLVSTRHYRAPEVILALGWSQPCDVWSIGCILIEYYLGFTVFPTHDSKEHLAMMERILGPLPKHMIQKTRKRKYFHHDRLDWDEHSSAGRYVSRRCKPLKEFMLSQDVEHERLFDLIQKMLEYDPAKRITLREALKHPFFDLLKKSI
Protocol: as §1

CSK = CSK (Homo sapiens, UniProt P41240)
Protocol: as §1

DCAMKL2 = target: T2, DCAMKL2 (Homo sapiens, UniProt Q8N568)
T2 construct: gene DCLK2
Protocol: as §1

DCAMKL3 = target: T3, DCAMKL3 (Homo sapiens, UniProt Q9C098)
T3 construct: gene DCLK3
Protocol: as §1

EPHA4 = EPHA4 (Homo sapiens, UniProt P54764)
Protocol: as §1

FLT3(ITD,F691L) = FLT3(ITD,F691L) (Homo sapiens, UniProt P36888, F691L/ITD)
Protocol: as §1

JNK2 = target: T4, JNK2 (Homo sapiens, UniProt P45984)
T4 construct: gene MAPK9
Protocol: as §1

MEK3 = target: T5, MEK3 (Homo sapiens, UniProt P46734)
T5 construct: gene MAP2K3
T5 sequence (P46734 whole entry): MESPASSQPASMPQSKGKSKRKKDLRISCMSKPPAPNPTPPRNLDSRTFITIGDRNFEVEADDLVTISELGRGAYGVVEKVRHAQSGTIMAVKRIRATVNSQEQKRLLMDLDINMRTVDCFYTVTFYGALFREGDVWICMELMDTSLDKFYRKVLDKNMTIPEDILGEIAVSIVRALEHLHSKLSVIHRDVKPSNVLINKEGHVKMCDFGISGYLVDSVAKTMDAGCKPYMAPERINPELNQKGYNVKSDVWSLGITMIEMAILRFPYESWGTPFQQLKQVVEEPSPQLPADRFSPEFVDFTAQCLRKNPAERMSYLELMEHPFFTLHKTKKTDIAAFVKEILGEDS
Protocol: as §1

MERTK = MERTK (Homo sapiens, UniProt Q12866)
Sequence of MERTK (Q12866 whole entry): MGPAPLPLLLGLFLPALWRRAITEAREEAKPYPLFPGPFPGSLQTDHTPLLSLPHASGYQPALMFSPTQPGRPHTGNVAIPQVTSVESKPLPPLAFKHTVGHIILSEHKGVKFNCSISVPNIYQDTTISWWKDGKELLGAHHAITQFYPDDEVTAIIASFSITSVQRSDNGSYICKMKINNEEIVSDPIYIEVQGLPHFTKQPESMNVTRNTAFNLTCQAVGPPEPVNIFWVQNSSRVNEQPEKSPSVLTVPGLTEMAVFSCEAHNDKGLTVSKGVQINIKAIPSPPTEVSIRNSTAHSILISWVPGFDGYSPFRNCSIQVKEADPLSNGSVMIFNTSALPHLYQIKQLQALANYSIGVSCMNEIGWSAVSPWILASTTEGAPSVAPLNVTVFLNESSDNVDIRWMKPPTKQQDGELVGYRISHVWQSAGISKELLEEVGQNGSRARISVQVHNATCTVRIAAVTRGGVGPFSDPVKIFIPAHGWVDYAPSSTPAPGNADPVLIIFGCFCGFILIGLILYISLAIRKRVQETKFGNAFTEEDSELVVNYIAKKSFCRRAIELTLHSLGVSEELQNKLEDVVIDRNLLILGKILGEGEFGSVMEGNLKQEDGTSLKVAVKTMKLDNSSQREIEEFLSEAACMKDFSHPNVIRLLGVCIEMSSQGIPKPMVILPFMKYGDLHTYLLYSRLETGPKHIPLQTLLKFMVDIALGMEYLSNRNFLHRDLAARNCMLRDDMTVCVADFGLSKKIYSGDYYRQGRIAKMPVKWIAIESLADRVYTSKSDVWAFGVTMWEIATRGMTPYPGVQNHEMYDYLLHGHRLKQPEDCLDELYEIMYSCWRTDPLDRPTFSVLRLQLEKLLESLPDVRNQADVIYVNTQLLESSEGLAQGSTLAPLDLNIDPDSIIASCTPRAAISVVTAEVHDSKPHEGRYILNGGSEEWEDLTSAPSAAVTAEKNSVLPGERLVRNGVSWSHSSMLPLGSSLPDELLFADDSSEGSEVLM
Protocol: as §1

MST3 = target: T6, MST3 (Homo sapiens, UniProt Q9Y6E0)
T6 construct: gene STK24
T6 sequence (Q9Y6E0 whole entry): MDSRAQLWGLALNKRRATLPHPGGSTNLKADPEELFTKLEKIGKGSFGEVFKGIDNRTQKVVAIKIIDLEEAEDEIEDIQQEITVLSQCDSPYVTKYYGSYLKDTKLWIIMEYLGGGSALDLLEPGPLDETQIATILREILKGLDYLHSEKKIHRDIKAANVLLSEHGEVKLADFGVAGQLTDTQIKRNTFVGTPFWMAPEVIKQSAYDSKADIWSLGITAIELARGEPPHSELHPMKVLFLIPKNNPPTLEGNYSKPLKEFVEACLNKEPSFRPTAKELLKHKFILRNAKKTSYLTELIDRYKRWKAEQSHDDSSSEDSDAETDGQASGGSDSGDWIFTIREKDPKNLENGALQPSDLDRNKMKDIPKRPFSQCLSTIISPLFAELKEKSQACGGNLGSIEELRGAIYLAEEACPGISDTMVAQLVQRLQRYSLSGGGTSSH
Protocol: as §1

NEK9 = NEK9 (Homo sapiens, UniProt Q8TD19)
Sequence of NEK9 (Q8TD19 whole entry): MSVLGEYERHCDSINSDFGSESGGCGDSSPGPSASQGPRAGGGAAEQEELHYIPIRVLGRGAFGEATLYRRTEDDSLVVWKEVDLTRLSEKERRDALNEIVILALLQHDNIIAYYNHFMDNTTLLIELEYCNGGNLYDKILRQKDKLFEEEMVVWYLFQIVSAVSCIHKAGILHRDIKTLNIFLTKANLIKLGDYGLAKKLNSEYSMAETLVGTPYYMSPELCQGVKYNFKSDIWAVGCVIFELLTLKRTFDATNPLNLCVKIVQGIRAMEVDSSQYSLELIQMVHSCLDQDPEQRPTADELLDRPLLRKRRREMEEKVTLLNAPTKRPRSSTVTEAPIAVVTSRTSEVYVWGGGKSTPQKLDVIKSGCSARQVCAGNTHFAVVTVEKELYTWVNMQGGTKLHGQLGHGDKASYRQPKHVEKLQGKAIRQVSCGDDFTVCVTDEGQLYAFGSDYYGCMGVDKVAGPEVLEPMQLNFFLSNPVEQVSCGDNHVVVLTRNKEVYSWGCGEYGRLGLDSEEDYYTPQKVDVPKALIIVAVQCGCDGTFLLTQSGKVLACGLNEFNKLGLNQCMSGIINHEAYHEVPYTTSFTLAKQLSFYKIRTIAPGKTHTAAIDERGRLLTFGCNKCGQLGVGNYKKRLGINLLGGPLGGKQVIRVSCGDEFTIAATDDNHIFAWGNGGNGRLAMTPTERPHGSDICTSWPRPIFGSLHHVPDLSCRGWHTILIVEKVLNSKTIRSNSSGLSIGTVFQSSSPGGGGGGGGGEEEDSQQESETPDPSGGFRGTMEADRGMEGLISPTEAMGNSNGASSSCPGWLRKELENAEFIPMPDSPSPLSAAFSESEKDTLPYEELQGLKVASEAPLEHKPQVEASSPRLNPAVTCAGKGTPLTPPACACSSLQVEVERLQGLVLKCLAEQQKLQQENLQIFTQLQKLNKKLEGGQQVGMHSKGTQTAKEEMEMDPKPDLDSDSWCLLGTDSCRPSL
Protocol: as §1

NIK = target: T7, NIK (Homo sapiens, UniProt Q99558)
T7 construct: gene MAP3K14
Protocol: as §1

PIM3 = PIM3 (Homo sapiens, UniProt Q86V86)
Protocol: as §1

PRKD2 = PRKD2 (Homo sapiens, UniProt Q9BZL6)
Sequence of PRKD2 (Q9BZL6 whole entry): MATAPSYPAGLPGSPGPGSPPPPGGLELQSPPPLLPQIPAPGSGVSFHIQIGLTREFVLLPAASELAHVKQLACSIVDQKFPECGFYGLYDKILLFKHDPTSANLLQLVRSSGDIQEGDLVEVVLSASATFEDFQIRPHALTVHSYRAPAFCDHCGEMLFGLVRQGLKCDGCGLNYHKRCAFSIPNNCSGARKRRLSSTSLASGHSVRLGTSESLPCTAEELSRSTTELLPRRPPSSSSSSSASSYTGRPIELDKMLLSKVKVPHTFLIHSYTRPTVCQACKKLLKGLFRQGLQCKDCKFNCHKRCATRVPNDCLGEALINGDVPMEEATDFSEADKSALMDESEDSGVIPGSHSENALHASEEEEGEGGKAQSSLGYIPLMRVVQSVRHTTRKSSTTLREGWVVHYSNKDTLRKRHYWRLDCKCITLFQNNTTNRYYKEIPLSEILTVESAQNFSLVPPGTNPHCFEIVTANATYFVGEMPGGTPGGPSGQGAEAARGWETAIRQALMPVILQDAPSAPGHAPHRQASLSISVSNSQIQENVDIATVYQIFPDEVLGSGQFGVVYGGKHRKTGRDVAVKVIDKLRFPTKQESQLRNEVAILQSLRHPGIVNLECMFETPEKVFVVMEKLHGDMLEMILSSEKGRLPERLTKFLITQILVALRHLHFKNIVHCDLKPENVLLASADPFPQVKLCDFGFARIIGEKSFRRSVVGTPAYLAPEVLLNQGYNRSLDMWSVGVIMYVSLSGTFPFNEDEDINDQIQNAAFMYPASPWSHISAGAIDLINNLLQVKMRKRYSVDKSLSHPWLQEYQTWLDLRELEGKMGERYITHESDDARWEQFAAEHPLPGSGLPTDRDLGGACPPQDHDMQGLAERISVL
Protocol: as §1

RIOK1 = RIOK1 (Homo sapiens, UniProt Q9BRS2)
Protocol: as §1

ROS1 = ROS1 (Homo sapiens, UniProt P08922)
Protocol: as §1

SNRK = SNRK (Homo sapiens, UniProt Q9NRH2)
Sequence of SNRK (Q9NRH2 whole entry): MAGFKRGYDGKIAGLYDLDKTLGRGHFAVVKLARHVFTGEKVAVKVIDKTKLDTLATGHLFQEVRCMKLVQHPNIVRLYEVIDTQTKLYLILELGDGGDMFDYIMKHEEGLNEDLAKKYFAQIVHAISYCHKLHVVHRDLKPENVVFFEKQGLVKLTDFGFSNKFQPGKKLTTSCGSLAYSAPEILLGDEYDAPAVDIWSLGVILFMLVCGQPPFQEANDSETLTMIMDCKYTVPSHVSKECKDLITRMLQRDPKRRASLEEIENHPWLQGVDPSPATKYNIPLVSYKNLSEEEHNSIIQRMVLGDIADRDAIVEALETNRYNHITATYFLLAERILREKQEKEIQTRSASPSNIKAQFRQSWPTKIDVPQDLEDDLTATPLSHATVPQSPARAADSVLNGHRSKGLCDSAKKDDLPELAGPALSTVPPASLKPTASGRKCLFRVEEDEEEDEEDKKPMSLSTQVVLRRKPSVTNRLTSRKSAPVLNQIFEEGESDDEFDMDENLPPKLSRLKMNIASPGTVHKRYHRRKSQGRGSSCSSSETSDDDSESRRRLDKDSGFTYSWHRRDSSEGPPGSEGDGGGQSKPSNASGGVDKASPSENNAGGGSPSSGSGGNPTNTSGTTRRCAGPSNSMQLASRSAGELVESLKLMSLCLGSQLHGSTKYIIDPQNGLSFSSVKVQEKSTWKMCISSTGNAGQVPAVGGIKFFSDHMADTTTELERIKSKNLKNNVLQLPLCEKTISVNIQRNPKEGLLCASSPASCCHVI
Protocol: as §1

SRPK1 = SRPK1 (Homo sapiens, UniProt Q96SB4)
Protocol: as §1

TAOK3 = TAOK3 (Homo sapiens, UniProt Q9H2K8)
Protocol: as §1

C=C(C)[C@H]1CC=C(C)C(=O)C1 [S-carvone]
remaining binding at 100 µM (ASK2): 100%
remaining binding at 100 µM (CAMK4): 70%
remaining binding at 100 µM (CDKL2): 85%
remaining binding at 100 µM (CLK1): 94%
remaining binding at 100 µM (CSK): 88%
remaining binding at 100 µM (DCAMKL2): 87%
remaining binding at 100 µM (DCAMKL3): 75%
remaining binding at 100 µM (EPHA4): 84%
remaining binding at 100 µM (FLT3(ITD,F691L)): 71%
remaining binding at 100 µM (JNK2): 95%
remaining binding at 100 µM (MEK3): 84%
remaining binding at 100 µM (MERTK): 90%
remaining binding at 100 µM (MST3): 64%
remaining binding at 100 µM (NEK9): 80%
remaining binding at 100 µM (NIK): 84%
remaining binding at 100 µM (PIM3): 72%
remaining binding at 100 µM (PRKD2): 100%
remaining binding at 100 µM (RIOK1): 100%
remaining binding at 100 µM (ROS1): 83%
remaining binding at 100 µM (SNRK): 75%
remaining binding at 100 µM (SRPK1): 77%
remaining binding at 100 µM (TAOK3): 73%
